Laboratory results published in patent US9045491B2, “Thienyl [3,2-D] pyrimidin-4-one compounds, preparation method, pharmaceutical compositions and use thereof” (SHANGHAI INSTITUTE OF MATERIA MEDICA, CHINESE ACADEMY OF …, priority 2011, dated 2015).
pIC50: −log10 of the molar value.

Experiments:
Type in all cases: biochemical
[1] = biological target: dipeptidyl peptidase 7 (DPP 7) (Homo sapiens, UniProt Q9UHL4); test: DPP 7 activity screening; settings: N.I. = No Inhibition
In short: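 Sample dissolved in DMSO, final DMSO kept at a level not affecting activity; tested at a single concentration from preliminary screening (e.g. 20 μg/mL). Dose-response data fitted to sigmoidal variable-slope model with bottom and top fixed at 0 and 100.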

[2] = biological target: T1, human DPP IV (Homo sapiens, UniProt P27487); test: DPP IV activity screening (Ala-Pro-AMC fluorescence)
T1 construct: extracellular fragment of protease DPP IV (aa29-766); made in house; host or cells: baculovirus expression system Bac-to-Bac
In short: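 DPP IV activity is taken as the linear rate of fluorescence change at 460 nm. Samples are dissolved in DMSO and screened at a single concentration (e.g. 20 μg/mL). Dose-response data are fit to a variable-slope sigmoidal model with bottom and top fixed at 0 and 100.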

[3] = biological target: T2, Human DPP 9 (Homo sapiens, UniProt Q86TI2); test: DPP 9 activity screening (Ala-Pro-AMC fluorescence); settings: N.I. = No Inhibition
T2 construct: made in house; host or cells: insect cells, baculovirus Bac-to-Bac
In short: (§1)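 Insect-cell baculovirus-expressed human enzymes hydrolyse Ala-Pro-AMC; AMC release monitored kinetically as fluorescence rate (ex 355/em 460 nm). Primary screen at a single concentration (e.g. 20 μg/mL); dose–response fitted to variable-slope sigmoid with bottom/top fixed at 0 and 100.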

[4] = biological target: T3, human DPP 8 (Homo sapiens, UniProt Q6V1X1); test: DPP 8 activity screening (Ala-Pro-AMC fluorescence); settings: N.I. = No Inhibition
T3 construct: made in house; host or cells: insect cells, baculovirus Bac-to-Bac
In short: as §1

[5] = biological target: T4, FAP (Homo sapiens, UniProt Q12884); test: FAP inhibition (Table 1); settings: N.I. = No Inhibition
T4 sequence (Q12884 1-760): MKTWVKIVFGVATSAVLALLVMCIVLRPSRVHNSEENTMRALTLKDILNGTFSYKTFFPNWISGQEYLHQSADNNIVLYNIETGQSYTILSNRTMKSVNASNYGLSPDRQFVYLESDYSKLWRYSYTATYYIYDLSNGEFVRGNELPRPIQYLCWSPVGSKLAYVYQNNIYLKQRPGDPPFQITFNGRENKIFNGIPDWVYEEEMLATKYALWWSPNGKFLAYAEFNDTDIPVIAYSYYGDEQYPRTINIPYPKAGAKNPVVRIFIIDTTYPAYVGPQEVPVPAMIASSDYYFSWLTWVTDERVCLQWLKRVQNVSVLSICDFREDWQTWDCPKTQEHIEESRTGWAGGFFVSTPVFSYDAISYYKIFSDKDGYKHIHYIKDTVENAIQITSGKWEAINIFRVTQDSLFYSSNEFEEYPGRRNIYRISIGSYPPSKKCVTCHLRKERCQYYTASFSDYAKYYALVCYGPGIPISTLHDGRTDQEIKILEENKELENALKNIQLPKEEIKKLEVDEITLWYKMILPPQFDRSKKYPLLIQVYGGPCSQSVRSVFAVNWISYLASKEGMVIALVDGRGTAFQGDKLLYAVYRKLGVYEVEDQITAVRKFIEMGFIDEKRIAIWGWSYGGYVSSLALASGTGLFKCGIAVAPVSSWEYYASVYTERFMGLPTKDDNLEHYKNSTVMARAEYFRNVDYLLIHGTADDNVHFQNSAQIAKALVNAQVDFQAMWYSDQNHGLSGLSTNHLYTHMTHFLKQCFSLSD

T1 sequence (P27487 29-766): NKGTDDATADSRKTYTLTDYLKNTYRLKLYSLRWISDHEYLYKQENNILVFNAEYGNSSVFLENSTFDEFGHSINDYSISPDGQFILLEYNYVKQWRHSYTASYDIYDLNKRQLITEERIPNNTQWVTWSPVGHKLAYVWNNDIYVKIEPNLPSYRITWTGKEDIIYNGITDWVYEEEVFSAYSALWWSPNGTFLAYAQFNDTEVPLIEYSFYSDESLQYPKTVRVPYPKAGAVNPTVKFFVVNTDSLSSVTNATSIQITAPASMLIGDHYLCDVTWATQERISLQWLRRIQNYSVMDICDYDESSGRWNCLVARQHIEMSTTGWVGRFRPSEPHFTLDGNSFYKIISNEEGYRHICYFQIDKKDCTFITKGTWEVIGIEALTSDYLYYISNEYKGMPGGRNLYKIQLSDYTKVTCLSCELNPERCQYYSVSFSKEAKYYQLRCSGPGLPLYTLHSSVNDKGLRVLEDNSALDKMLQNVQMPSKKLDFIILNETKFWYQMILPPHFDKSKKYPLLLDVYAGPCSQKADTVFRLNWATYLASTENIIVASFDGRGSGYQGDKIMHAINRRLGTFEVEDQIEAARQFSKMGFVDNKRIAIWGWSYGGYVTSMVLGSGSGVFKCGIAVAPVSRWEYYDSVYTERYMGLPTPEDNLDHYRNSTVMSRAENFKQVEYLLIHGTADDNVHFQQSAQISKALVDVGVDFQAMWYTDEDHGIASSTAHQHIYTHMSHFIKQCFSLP
T2 sequence (Q86TI2 whole entry): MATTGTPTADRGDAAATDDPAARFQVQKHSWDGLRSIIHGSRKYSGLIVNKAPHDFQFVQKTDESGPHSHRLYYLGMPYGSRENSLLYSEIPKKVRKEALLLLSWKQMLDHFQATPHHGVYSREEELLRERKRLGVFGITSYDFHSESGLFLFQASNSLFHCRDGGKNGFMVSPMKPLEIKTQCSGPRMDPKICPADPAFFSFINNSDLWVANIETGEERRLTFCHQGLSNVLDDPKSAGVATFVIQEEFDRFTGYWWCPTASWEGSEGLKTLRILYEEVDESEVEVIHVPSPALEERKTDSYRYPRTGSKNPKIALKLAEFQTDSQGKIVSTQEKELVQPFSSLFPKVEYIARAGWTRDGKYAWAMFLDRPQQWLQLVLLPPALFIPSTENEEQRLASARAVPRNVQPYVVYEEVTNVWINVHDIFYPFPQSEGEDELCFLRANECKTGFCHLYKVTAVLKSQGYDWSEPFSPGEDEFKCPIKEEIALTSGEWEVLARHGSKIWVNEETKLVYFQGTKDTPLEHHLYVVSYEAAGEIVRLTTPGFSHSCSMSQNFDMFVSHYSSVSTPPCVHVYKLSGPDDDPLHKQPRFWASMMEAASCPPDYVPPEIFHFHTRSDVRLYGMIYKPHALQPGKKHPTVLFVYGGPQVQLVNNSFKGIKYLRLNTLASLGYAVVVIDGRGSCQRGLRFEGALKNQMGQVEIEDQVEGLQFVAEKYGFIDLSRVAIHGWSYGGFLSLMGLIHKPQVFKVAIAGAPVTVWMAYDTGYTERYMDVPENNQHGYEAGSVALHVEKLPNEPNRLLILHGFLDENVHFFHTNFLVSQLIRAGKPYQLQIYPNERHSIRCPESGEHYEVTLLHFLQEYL
T3 sequence (Q6V1X1 whole entry): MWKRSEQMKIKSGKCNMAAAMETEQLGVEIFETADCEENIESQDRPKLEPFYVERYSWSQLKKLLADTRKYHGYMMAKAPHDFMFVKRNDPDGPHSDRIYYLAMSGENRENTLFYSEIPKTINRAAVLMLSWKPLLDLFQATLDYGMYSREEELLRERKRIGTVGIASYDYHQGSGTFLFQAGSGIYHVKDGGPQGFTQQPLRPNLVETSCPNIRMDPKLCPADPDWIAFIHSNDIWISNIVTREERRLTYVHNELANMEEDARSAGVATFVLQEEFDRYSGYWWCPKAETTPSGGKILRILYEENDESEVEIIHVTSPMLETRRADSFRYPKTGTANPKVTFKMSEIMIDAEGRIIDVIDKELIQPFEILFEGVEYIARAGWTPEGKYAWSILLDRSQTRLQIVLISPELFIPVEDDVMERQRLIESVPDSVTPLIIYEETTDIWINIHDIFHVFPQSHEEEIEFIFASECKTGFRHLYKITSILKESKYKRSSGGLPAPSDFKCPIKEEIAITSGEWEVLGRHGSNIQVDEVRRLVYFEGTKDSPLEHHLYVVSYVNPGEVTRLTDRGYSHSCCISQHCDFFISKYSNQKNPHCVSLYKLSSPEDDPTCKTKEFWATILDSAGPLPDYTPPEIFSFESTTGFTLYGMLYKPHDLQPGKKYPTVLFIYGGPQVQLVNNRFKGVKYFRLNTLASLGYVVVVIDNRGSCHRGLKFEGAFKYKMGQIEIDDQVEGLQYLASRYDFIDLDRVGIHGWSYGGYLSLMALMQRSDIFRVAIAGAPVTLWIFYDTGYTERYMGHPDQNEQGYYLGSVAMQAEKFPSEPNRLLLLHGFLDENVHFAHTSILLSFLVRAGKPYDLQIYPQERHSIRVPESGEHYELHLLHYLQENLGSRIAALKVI

DPP 7 IC50 [1]	pIC50 [2]	pIC50 [3]	DPP 8 IC50 [4]	pIC50 [5]	pIC50 [4]	FAP IC50 [5]	DPP 9 IC50 [3]	Structure (SMILES)
N.I.	7.77	3.59	N.I.	3.62	–	–	–	CNC(=O)c1cc2nc(N3CCC[C@@H](N)C3)n(Cc3ccccc3C#N)c(=O)c2s1 [Compound 104, (R)-2-(3-aminopiperidin-1-yl)-3-(2-cyanobenzyl)-N-methyl-4-oxo-3,4-dihydrothieno[3,2-d]pyrimidine-6-carboxamide]
N.I.	7.57	3.59	N.I.	3.70	–	–	–	CN(C)C(=O)c1cc2nc(N3CCC[C@@H](N)C3)n(Cc3ccccc3C#N)c(=O)c2s1 [Compound 105, (R)-2-(3-aminopiperidin-1-yl)-3-(2-cyanobenzyl)-N,N-dimethyl-4-oxo-3,4-dihydrothieno[3,2-d]pyrimidine-6-carboxamide]
N.I.	7.74	3.90	–	3.93	4.12	–	–	N#Cc1ccccc1Cn1c(N2CCC[C@@H](N)C2)nc2cc(C(=O)NCC3CC3)sc2c1=O [Compound 106, (R)-2-(3-aminopiperidin-1-yl)-3-(2-cyanobenzyl)-N-(cyclopropylmethyl)-4-oxo-3,4-dihydrothieno[3,2-d]pyrimidine-6-carboxamide]
N.I.	7.62	3.91	–	4.01	4.40	–	–	N#Cc1ccccc1Cn1c(N2CCC[C@@H](N)C2)nc2cc(C(=O)N3CCCC3)sc2c1=O [Compound 107, (R)-2-((2-(3-aminopiperidin-1-yl)-4-oxo-6-(pyrrolidine-1-carbonyl)thieno-[3,2-d]pyrimidin-3(4H)-yl)methyl)-benzonitrile]
N.I.	7.93	3.95	–	4.57	4.82	–	–	N#Cc1ccccc1Cn1c(N2CCC[C@@H](N)C2)nc2cc(C(=O)N3CCCCC3)sc2c1=O [Compound 108, (R)-2-((2-(3-aminopiperidin-1-yl)-4-oxo-6-(piperidine-1-carbonyl)thieno-[3,2-d]pyrimidin-3(4H)-yl)methyl)-benzonitrile]
N.I.	7.81	4.04	–	3.99	4.21	–	–	N#Cc1ccccc1Cn1c(N2CCC[C@@H](N)C2)nc2cc(C(=O)NCc3ccccc3F)sc2c1=O [Compound 109, (R)-2-(3-aminopiperidin-1-yl)-3-(2-cyanobenzyl)-N-(2-fluorobenzyl)-4-oxo-3,4-dihydrothieno[3,2-d]pyrimidine-6-carboxamide]
N.I.	7.61	4.29	–	3.88	4.09	–	–	N#Cc1ccccc1Cn1c(N2CCC[C@@H](N)C2)nc2cc(C(=O)NCc3ccccc3Cl)sc2c1=O [Compound 110, (R)-2-(3-aminopiperidin-1-yl)-N-(2-chlorobenzyl)-3-(2-cyanobenzyl)-4-oxo-3,4-dihydrothieno[3,2-d]pyrimidine-6-carboxamide]
N.I.	7.72	3.88	–	–	3.95	N.I.	–	COCCNC(=O)c1cc2nc(N3CCC[C@@H](N)C3)n(Cc3ccccc3C#N)c(=O)c2s1 [Compound 111, (R)-2-(3-aminopiperidin-1-yl)-3-(2-cyanobenzyl)-N-(2-methoxyethyl)-4-oxo-3,4-dihydrothieno[3,2-d]-pyrimidine-6-carboxamide]
N.I.	7.62	3.80	–	3.67	4.16	–	–	COCCCNC(=O)c1cc2nc(N3CCC[C@@H](N)C3)n(Cc3ccccc3C#N)c(=O)c2s1 [Compound 112, (R)-2-(3-aminopiperidin-1-yl)-3-(2-cyanobenzyl)-N-(3-methoxypropyl)-4-oxo-3,4-dihydrothieno[3,2-d]-pyrimidine-6-carboxamide]
N.I.	7.73	3.52	–	3.76	3.78	–	–	CCNC(=O)c1cc2nc(N3CCC[C@@H](N)C3)n(Cc3ccccc3C#N)c(=O)c2s1 [Compound 113, (R)-2-(3-aminopiperidin-1-yl)-3-(2-cyanobenzyl)-N-ethyl-4-oxo-3,4-dihydrothieno[3,2-d]pyrimidine-6-carboxamide]
N.I.	7.65	3.51	–	4.28	4.25	–	–	N#Cc1ccccc1Cn1c(N2CCC[C@@H](N)C2)nc2cc(C(=O)N3CCS(=O)(=O)CC3)sc2c1=O [Compound 114, (R)-2-((2-(3-aminopiperidin-1-yl)-6-(1,1-dioxidothiomorpholine-4-carbonyl)-4-oxothieno[3,2-d]pyrimidin-3(4H)-yl)-methyl)benzonitrile]
N.I.	7.84	3.78	–	3.84	3.74	–	–	CC(C)NC(=O)c1cc2nc(N3CCC[C@@H](N)C3)n(Cc3ccccc3C#N)c(=O)c2s1 [Compound 115, (R)-2-(3-aminopiperidin-1-yl)-3-(2-cyanobenzyl)-N-isopropyl-4-oxo-3,4-dihydrothieno[3,2-d]pyrimidine-6-carboxamide]
N.I.	7.73	–	–	3.90	4.02	–	N.I.	CC(C)CNC(=O)c1cc2nc(N3CCC[C@@H](N)C3)n(Cc3ccccc3C#N)c(=O)c2s1 [Compound 116, (R)-2-(3-aminopiperidin-1-yl)-3-(2-cyanobenzyl)-N-isobutyl-4-oxo-3,4-dihydrothieno[3,2-d]pyrimidine-6-carboxamide]
N.I.	7.80	4.11	–	3.93	4.20	–	–	CCCCNC(=O)c1cc2nc(N3CCC[C@@H](N)C3)n(Cc3ccccc3C#N)c(=O)c2s1 [Compound 117, (R)-2-(3-aminopiperidin-1-yl)-N-butyl-3-(2-cyanobenzyl)-4-oxo-3,4-dihydrothieno[3,2-d]pyrimidine-6-carboxamide]
N.I.	7.73	–	–	4.10	4.08	–	N.I.	N#Cc1ccccc1Cn1c(N2CCC[C@@H](N)C2)nc2cc(C(=O)N3CCOCC3)sc2c1=O [Compound 118, (R)-2-((2-(3-aminopiperidin-1-yl)-6-(morpholine-4-carbonyl)-4-oxothieno-[3,2-d]pyrimidin-3(4H)-yl)methyl)-benzonitrile]
N.I.	7.69	–	–	3.95	4.03	–	N.I.	N#Cc1ccccc1Cn1c(N2CCC[C@@H](N)C2)nc2cc(C(=O)NC3CCCCC3)sc2c1=O [Compound 119, (R)-2-(3-aminopiperidin-1-yl)-3-(2-cyanobenzyl)-N-cyclohexyl-4-oxo-3,4-dihydrothieno[3,2-d]pyrimidine-6-carboxamide]
N.I.	7.54	4.30	–	4.06	4.27	–	–	N#Cc1ccccc1Cn1c(N2CCC[C@@H](N)C2)nc2cc(C(=O)NCc3cccc(C(F)(F)F)c3)sc2c1=O [Compound 120, (R)-2-(3-aminopiperidin-1-yl)-3-(2-cyanobenzyl)-4-oxo-N-(3-(trifluoromethyl)benzyl)-3,4-dihydrothieno[3,2-d]pyrimidine-6-carboxamide]
N.I.	7.57	–	N.I.	–	–	N.I.	N.I.	CC(C)CCNC(=O)c1cc2nc(N3CCC[C@@H](N)C3)n(Cc3ccccc3C#N)c(=O)c2s1 [Compound 121, (R)-2-(3-aminopiperidin-1-yl)-3-(2-cyanobenzyl)-N-isopentyl-4-oxo-3,4-dihydrothieno[3,2-d]pyrimidine-6-carboxamide]
